The IC50 is the concentration needed to halve the response being measured.

SMILES strings stand for the structures.

This note sets out measurements from patent publication US9000045B2, “CETP activity inhibitors” (Japan Tobacco Inc., priority 1997, dated 2015).

In this assay the target is T1, CETP (Homo sapiens, UniProt P11597).
T1 sequence (P11597 18-493): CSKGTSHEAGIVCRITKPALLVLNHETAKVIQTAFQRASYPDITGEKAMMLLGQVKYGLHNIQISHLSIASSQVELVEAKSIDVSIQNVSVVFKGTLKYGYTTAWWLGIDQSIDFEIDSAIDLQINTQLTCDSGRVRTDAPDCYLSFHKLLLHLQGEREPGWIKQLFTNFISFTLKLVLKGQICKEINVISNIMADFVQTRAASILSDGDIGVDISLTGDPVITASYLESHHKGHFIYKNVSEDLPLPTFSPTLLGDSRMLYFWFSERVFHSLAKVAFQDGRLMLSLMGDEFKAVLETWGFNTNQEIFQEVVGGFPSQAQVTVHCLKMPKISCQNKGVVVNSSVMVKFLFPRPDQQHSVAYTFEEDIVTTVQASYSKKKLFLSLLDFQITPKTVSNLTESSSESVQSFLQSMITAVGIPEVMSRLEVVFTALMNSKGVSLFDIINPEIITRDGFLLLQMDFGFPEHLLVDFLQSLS
The assay can be described thus: In vitro CETP activity inhibitory effect in whole plasma. More on the design: Plasma containing [^3H]CE-HDL3 (600,000 dpm/ml) was prepared by adding donor lipoprotein obtained in the above (1) to plasma from healthy subjects; from tissue; host or cells: whole plasma of healthy subjects. The note with it: plasma from healthy subjects containing [3H]CE-HDL3, incubated 4 hours at 37° C.; read-out: CETP activity inhibition in whole plasma IC50. In kind it is biochemical. On the procedure:
The fraction thus obtained was dialyzed against a PBS solution [10 mM Na2HPO4/10 mM NaH2PO4/0.15 M NaCl/1 mM EDTA (pH 7.4)]. Then, tritium-labeled cholesterol (10 nM) (50.3 Ci/mM) was dissolved in 95% ethanol and added gradually to the above HDL3 fraction under stirring. The solution was incubated for 18 hours at 37° C. […] After incubation, KBr was added and specific gravity was adjusted to d=1.21 g/ml. […] A sample solution was prepared using a 1:1 solution of N-methylpyrrolidone and polyethyleneglycol 400 as a solvent. […] Based on the inhibition rate (%) of CETP activity, IC50 value of each sample was calculated.
With `Cc1ccc(S)c(NC(=O)C2(C)CCCCC2)c1` [Example 19-2], the IC50 came out at 33 µM.
The value for `CC(C)(C)C(=O)Sc1cc(Cl)c(Cl)cc1NC(=O)C1(CC2CC2)CCCCC1` [Example 70] was 4 µM; that for `CC(=O)N[C@@H](Cc1ccc(O)cc1)C(=O)Sc1ccccc1NC(=O)C1(C)CCCCC1` [Example 25-36] was 30 µM; that for `CC(C)(C)C(=O)Sc1cc(Cl)c(Cl)cc1NC(=O)C1(C2CC2)CCCCC1` [Example 67] was 9 µM.
Consider `CC(C)(C)C(=O)Sc1cc(F)c(F)cc1NC(=O)C1(C)CCCCC1` [Example 25-72], for which the concentration for half-maximal inhibition (IC50) turned out to be 27 µM.
On to `CC1(C(=O)Nc2ccccc2SC(=O)[C@H](N)c2ccccc2)CCCCC1` [Example 25-42], for which the IC50 was 22 µM.
In the case of `CC(C)(C)C1CCC(C(=O)Nc2ccccc2SSc2ccccc2NC(=O)C2CCC(C(C)(C)C)CC2)CC1` (stereo not drawn) [Example 1-13] it was 18 µM.
As to `CC(C)CC(C(=O)Nc1cc(Cl)c(Cl)cc1SC(=O)C(C)(C)C)C1CCCCC1` (stereo not drawn) [Example 66-40], the half-inhibitory concentration (IC50) turned out to be 42 µM.
Consider `CC(=O)NCC(=O)Sc1ccccc1NC(=O)C1(C)CCCCC1` [Example 25-33], for which the 50% inhibitory concentration (IC50) came to 18 µM.
With `CC(C)CCC1(C(=O)Nc2ccccc2SC(=O)C2CCCCC2)CCCC1` [Example 25-64], the IC50 was 20 µM.
The value for `CC1(C(=O)Nc2ccccc2SSc2ccccc2NC(=O)C2(C)CCCCC2)CCCCC1` [Example 6] was 5 µM.
Turning to `O=C(Nc1ccccc1SSc1ccccc1NC(=O)c1ccccc1)c1ccccc1` [Example 3], the IC50 stood at 101 µM.
The value for `CC(C)(C)CC1(C(=O)Nc2cc(Cl)c(Cl)cc2SC(=O)C(C)(C)C)CCCCC1` [Example 66-46] was 35 µM; that for `CC(C)(C)C(=O)Nc1ccccc1SC(=O)C1CCCCC1` [Example 25-4] was 32 µM; that for `CC(C)CCC1(C(=O)Nc2cc(Cl)c(Cl)cc2SC(=O)C2CCCCC2)CCCCC1` [Example 25-82] was 17 µM.
The value for `CC1(C(=O)Nc2cc(Cl)ccc2SC(=O)Cc2ccccc2)CCCCC1` [Example 66-3] was 24 µM.
The value for `CC1(C(=O)Nc2cc(F)ccc2S)CCCCC1` [Example 19-1] was 19 µM; that for `CC(C)(C)C(=O)Sc1cc(Cl)c(Cl)cc1NC(=O)[C@H]1CC[C@H](C)CC1` [Example 66-30] was 19 µM; that for `CC(C)(C)C(=O)Sc1cc(Cl)c(Cl)cc1NC(=O)C1CCC(C(C)(C)C)CC1` (stereo not drawn) [Example 66-26] was 8 µM.
As for `CC(C)(C)C(=O)Nc1ccccc1CC(=O)Sc1ccccc1NC(=O)C(C)(C)C` [Example 25-13], the IC50 was found to be 28 µM.
As for `CC(C)CC(CC(C)C)C(=O)Nc1cc(Cl)c(Cl)cc1SC(=O)C(C)(C)C` [Example 66-14], the half-inhibitory concentration (IC50) stood at 11 µM.
On to `CC1(C(=O)Nc2ccccc2CC(=O)Sc2ccccc2NC(=O)C2(C)CCCCC2)CCCCC1` [Example 25-19], for which the concentration for half-maximal inhibition (IC50) was 22 µM.
In the case of `CC(=O)N[C@@H](CC(C)C)C(=O)Sc1ccccc1NC(=O)C1(C)CCCCC1` [Example 25-35] it was 27 µM; in that of `O=C(Nc1ccccc1SSc1ccccc1NC(=O)C1CCCCC1)C1CCCCC1` [Example 1-6], 22 µM.
For the molecule `CC1(C(=O)Nc2ccccc2SC(=O)Cc2cccc(Cl)c2)CCCCC1` [Example 25-22], the half-maximal inhibitory concentration (IC50) amounted to 27 µM.
In the case of `CC(C)CCC1(C(=O)Nc2cc(Cl)c(Cl)cc2S)CCCCC1` [Example 20], the IC50 was 16 µM.
On to `CC(C)CCC1(C(=O)Nc2cc(Cl)c(Cl)cc2S)CCCC1` [Example 21], for which the concentration for half-maximal inhibition (IC50) is 9 µM.
In the case of `CC(C)(C)C(=O)Sc1ccc(Cl)cc1NC(=O)C1(C)CCCCC1` [Example 66-4] it was 28 µM; in that of `CC(C)CCC1(C(=O)Nc2cc(Cl)c(Cl)cc2SC(=O)CN(C)C)CCCCC1` [Example 25-80], 5 µM.
In the case of `CC(C)(C)C(=O)Nc1ccccc1S` [Example 9, N-(2-mercaptophenyl)-2,2-dimethylpropioneamide] it was 99 µM; in that of `CC(C)CCC1(C(=O)Nc2cc(Cl)c(Cl)cc2SSc2cc(Cl)c(Cl)cc2NC(=O)C2(CCC(C)C)CCCCC2)CCCCC1` [Example 82, bis-[4,5-dichloro-2-(1-isopentylcyclohexane-carbonylamino)phenyl]disulfide], 7 µM; in that of `CC(C)(C)C(=O)Sc1cc(Cl)c(Cl)cc1NC(=O)C1(CC2CCCCC2)CCCC1` [Example 66-51], 45 µM.
As to `CC(C)(C)C(=O)Nc1ccccc1SC(=O)CCc1ccccc1` [Example 25-14], the IC50 amounted to 30 µM.
Take `CC(C)C(=O)Nc1ccccc1SSc1ccccc1NC(=O)C(C)C` [Example 1-1]: the concentration for half-maximal inhibition (IC50) amounted to 41 µM.
In the case of `CC1(C(=O)Nc2ccccc2SC(=O)Cc2ccccc2)CCCCC1` [Example 25-17] it was 23 µM; in that of `CC(C)CCC1(C(=O)Nc2ccccc2SC(=O)NC(C)C)CCCCC1` [Example 25-98], 8 µM.
The value for `CC1(C(=O)Nc2cc(C(F)(F)F)ccc2SC(=O)Sc2ccccc2)CCCCC1` [Example 25-93] was 22 µM.
In the case of `COC(=O)Sc1cc(Cl)c(Cl)cc1NC(=O)C1(CCC(C)C)CCCCC1` [Example 25-91] it was 22 µM; in that of `CC(C)CCC1(C(=O)Nc2cc(Cl)c(Cl)cc2SC(=O)c2cccnc2)CCCCC1` [Example 25-77], 7 µM; in that of `O=C(Nc1ccccc1SSc1ccccc1NC(=O)C12CC3CC(CC(C3)C1)C2)C12CC3CC(CC(C3)C1)C2` [Example 1-12], 12 µM.
Turning to `CC(C)(C)C(=O)Nc1ccccc1SSc1ccccc1NC(=O)C(C)(C)C` [Example 1, bis-[2-(pivaloylamino)phenyl]disulfide], the concentration for half-maximal inhibition (IC50) was found to be 20 µM.
The value for `CC(C)(C)C(=O)Sc1ccc(C(F)(F)F)cc1NC(=O)C1(C)CCCCC1` [Example 25-67] was 40 µM; that for `COC(=O)CCC(=O)Sc1cc(Cl)c(Cl)cc1NC(=O)C1(CCC(C)C)CCCCC1` [Example 25-79] was 6 µM.
The value for `CC1(C(=O)Nc2ccc(F)cc2S)CCCCC1` [Example 19-6] was 18 µM; that for `CC(C)CCC1(C(=O)Nc2ccccc2SC(=O)[C@@H]2CCC(=O)N2)CCCCC1` [Example 25-54] was 6 µM; that for `CC1(C(=O)Nc2ccccc2SC(=O)Sc2ccccc2NC(=O)C2(C)CCCCC2)CCCCC1` [Example 25-95] was 18 µM.
As for `CC(C)(C)C(=O)Sc1cc(Cl)c(Cl)cc1NC(=O)C1(C2CCCCC2)CCCCC1` [Example 66-18], the IC50 was found to be 11 µM.
The value for `CC1(C(=O)Nc2ccccc2SC(=O)[C@H](NC(=O)c2ccccc2)c2ccccc2)CCCCC1` [Example 25-40] was 23 µM.
In the case of `CC1(C(=O)Nc2cc(C(F)(F)F)ccc2SC(=O)Cc2ccccc2)CCCCC1` [Example 25-66] it was 35 µM; in that of `CC(=O)N[C@@H](Cc1ccccc1)C(=O)Sc1ccccc1NC(=O)C1(C)CCCCC1` [Example 25-32], 20 µM; in that of `CC(C)CCC1(C(=O)Nc2cc(Cl)c(Cl)cc2SC(=O)C(C)(C)C)CCCC1` [Example 51], 16 µM.
The value for `CC1(C(=O)Nc2cc(C(F)(F)F)ccc2SC(=O)Sc2ccc(C(F)(F)F)cc2NC(=O)C2(C)CCCCC2)CCCCC1` [Example 25-96] was 8 µM; that for `CC(C)(C)C(=O)Sc1cc(Cl)c(Cl)cc1NC(=O)[C@H]1CC[C@H](C(C)(C)C)CC1` [Example 66-27] was 9 µM; that for `CCCC1(C(=O)Nc2cc(Cl)c(Cl)cc2SC(=O)C(C)(C)C)CCCCC1` [Example 66-16] was 8 µM.
Regarding `CC(C)(C)C(=O)Sc1cc(Cl)c(Cl)cc1NC(=O)[C@]12CCCC[C@@H]1CCC2` [Example 66-23], the IC50 was 13 µM.
In the case of `CC1(C(=O)Nc2cc(F)c(F)cc2S)CCCCC1` [Example 19-5] it was 17 µM.
The value for `CC(C)CCC1(C(=O)Nc2ccccc2SC(=O)c2cccnc2)CCCC1` [Example 25-60] was 5 µM.
